Reference: patent publication US6930103B2, “Use of vasopeptidase inhibitors in the treatment of metabolic diseases, nephropathy and advanced glycation end-product associated diseases” (Aventis Pharma Deutschland GmbH, priority 2002, dated 2005)
Blank lines part the entries; values can stand above or below the compound they belong to.

How the values were obtained:
[1] = tested on: ZDF rats; assay: Dot blot analysis of kidney AGE subtypes (CML, CEL, pentosidine) in ZDF rats; assay type: in vivo, rat
Experimental: (§1) Kidney AGE values were determined by Dot blot analysis (Stracke et al., Exp. Clin. Endocrinol. Diabets 2002, 109, 330-336) and Reversed-phase high performance liquid chromatography or RP-HPLC (Drusch et al., Food Chem. 1999, 65, 547-553).
Kidney-samples for the dot blot analysis were obtained from 17-week-old male ZDF rats, control rats and ZDF rats treated for seven weeks with 30 mg/kg/d of compound (II-B) and 35 mg/kg/d of compound (III-B). Three animals of each group were sacrificed, the kidneys removed and immediately frozen in liquid nitrogen. Grinding of the kidneys was performed in liquid nitrogen using a freezer mill (Freezer 6750, C3 Analysetechnik GmbH). Kidney sample (10 mg) was dissolved in 1 ml phosphate buffered saline (PBS containing 0.5 g/l Tween 20, 0.5 mM PMSF, […]). The solution was treated two times for five seconds with an ultrasonic cell disrupter (45% power, Bandolin Sonoplus HD 2070), centrifuged for 20 minutes at 4000 rpm and the supernatant was used for dot blot analysis. The nitrocellulose membrane was placed in the dot blot apparatus and washed twice with Tris Buffered Saline (TBS), 100 μl TBS/well. For each sample, 10 μg protein (protein concentration of the samples were determined with the DC Protein Assay, Bio Rad) was diluted in 100 μl TBS and loaded on to the nitrocellulose membrane (Amersham). The membrane was incubated over night in TBS with Tween 20 (TBST; 20 mM Tris, 137 mM NaCl, 0.05% v/v Tween 20) with 5% non-fat dry milk at 4° C. and incubated for 1 hour at room temperature using the following antibody concentration: anti-CML 011 (Biologo) 0.25 μg/ml, anti-CEL (Biologo) 0.25 μg/ml and anti-pentosidine 012 (Biologo) 0.25 μg/ml. After extensive washing in TBST with 5% non-fat dry milk, membranes were exposed to […] anti-mouse IgG antibodies (Dianova) for one hour at room temperature. Membranes were washed again and exposed to the enhanced chemofluorescence detection system (Amersham) according to manufacturer's instructions. Relative fluorescence was determined with the Fluor-Imager 595 (Molecular Dynamics) and quantified using the Image-Quant software. Results were expressed in relative fluorescence (rf) times 10^5 (rf*10^5).

[2] = tested on: Zucker diabetic fatty rats; assay: HbA1c analysis in ZDF rats; assay type: in vivo, rat; settings: for HbA1c values compared to the untreated ZDF rats: 17-week-old ZDF rats; for HbA1c, mean: ZDF rats
Experimental: (§2) Blood glucose and HbA1c was measured in 10- and 17-week-old male Zucker diabetic fatty rats (Genetic Model Inc.), control rats (Genetic Model Inc.) and male ZDF rats treated for seven weeks with 30 mg/kg/d of compound (II-B), 35 mg/kg/d of compound (III-B) and 1 mg/kg/d ramipril. Fifteen animals were analyzed in each group.
To obtain blood samples for HbA1c determination, disposable capillary tubes were used. HbA1c values were obtained from hemolyzed whole blood samples with a turbidimetric inhibition immunoassay (Tina-quant, Roche Diagnostics GmbH) and hemoglobin concentrations were determined in a second channel on an automated clinical chemistry analyzer (Boehringer Mannheim/Hitachi 912). HbA1c concentration in percent were calculated from HbA1c to total hemoglobin.

[3] = tested on: fat ZDF rats; assay: Histological examination of kidneys of ZDF rats after 6 months treatment; assay type: in vivo, rat; set-up: Armanni-Ebstein cells MEAN SEVERITY / Glomerulosclerosis MEAN SEVERITY / Atrophy: renal tubule MEAN SEVERITY / Casts: renal tubule MEAN SEVERITY: scale not given here; settings: for Incidence of glomerulosclerosis or associated degenerative lesions compared to fat ZDF controls: in words
Experimental: (§3) The protein and creatinine excretion in the urine of male Zucker Diabetic Fatty (ZDF) Rats (ZDF Gmi fa/fa) and heterozygous control animals (ZDF Gmi −/+) of 10, 17, 27 and 37 weeks age was determined. In further groups, diabetic rats were chronically given either ramipril (1 mg/kg/day, in drinking water) or a compound of formula (II-B) (30 mg/kg/day, in food) over a period from 10 to 37 weeks. The animals were sacrificied after 37 weeks, and their kidneys examined histologically.
In the attached tables a summary of the findings on the kidneys after a treatment period of 6 months is listed.

[4] = tested on: ZDF rats; assay: RP-HPLC analysis of CML in kidney and heart of ZDF rats; assay type: in vivo, rat; settings: for mean CML conc.: RP-HPLC, ZDF Placebo = 100
Experimental: as §1
[…] Two animals of each group were analyzed. Grinding of the kidney and heart was performed in liquid nitrogen using a freezer mill (Freezer 6750, C3 Analysetechnik GmbH). Hydrolysis of the organ samples was performed with 6 M hydrochloric acid (HCl) at 110° C. for 12 hours. Sample treatment with o-phthaldialdehyde (OPA) and RP-HPLC was performed as described in Drusch et al., Food Chem. 1999, 65, 547-553.

[5] = tested on: Zucker diabetic fatty rats; assay: Blood glucose analysis in ZDF rats; assay type: in vivo, rat; settings: for Blood glucose concentration compared to the untreated ZDF rats: 17-week-old ZDF rats; for blood glucose, mean: ZDF rats
Experimental: as §2
Blood samples for glucose determination were obtained from ZDF rats using standard sampling tubes. Within 30 minutes of collection, samples were separated from the cells by centrifugation. Quantitative determination of blood glucose in serum was performed with an enzymatic in vitro test from Roche Diagnostics GmbH (Gluco-quant, Roche Diagnostics GmbH) using the automated clinical chemistry analyzer Boehringer Mannheim/Hitachi 912.

[6] = acute treatment; Chen et al., Hypertension 2001; cited from earlier work
[7] = tested on: endothelial cells; assay: NO and superoxide release from endothelial cells in rabbits fed an atherogenic diet; assay type: in vivo, White New Zealand rabbits; settings: varied diet rabbits; mean ± SEM
Excerpt: (§4) It was shown in the atherogenic rabbit model (White New Zealand rabbits were fed with 0.25% cholesterol plus 3% coconut oil) that even a short 6 week period of an atherogenic diet leads to sustained endothelial dysfunction, even though the animals received a normal diet for 3 months thereafter.
The endothelium-dependent relaxation of isolated aortic rings of rabbits as well as the release of nitric oxide and superoxide from endothelial cells serve as measures of endothelial dysfunction.
• Groups: • Standard: 18 weeks normal diet • Atherogenic: 18 weeks atherogenic diet (3% Coconut oil+0.25% Cholesterol) • Varied diet (Var.): 6 weeks atherogenic diet+12 weeks normal diet • Varied Diet+ramipril: 6 weeks atherogenic diet+12 weeks normal diet+ramipril • Varied diet+compound (II-B): 6 weeks atherogenic diet+12 weeks normal diet+cpd. (II-B)
NO and O2^− are markers for endothelial function: increased relaxation and increased NO levels are beneficial, while increased O2^− formation inhibits the beneficial effects of NO.

[8] = tested on: isolated aortic rings of rabbits; assay: Relaxation of aortic rings by acetylcholine in rabbits fed an atherogenic diet; assay type: in vivo, White New Zealand rabbits; settings: varied diet rabbits, mean ± SEM
Excerpt: as §4, with “thereafter. […] The endothelium-dependent relaxation of isolated aortic rings of rabbits as well as the release of nitric oxide and superoxide from endothelial cells serve as measures of endothelial dysfunction. […] (II-B) [table]” for “thereafter.”

[9] = tested on: Zucker Diabetic Fatty (ZDF) Rats (ZDF Gmi fa/fa); assay: Urinary excretion of albumin and creatinine in ZDF rats treated from 10 to 37 weeks of age; assay type: in vivo, rat; settings: ZDF rats, mean
Experimental: as §3

[10] = tested on: Wistar rats; assay: Albumin and creatinine excretion in Wistar rats (non-diabetic nephropathy); assay type: in vivo, rat; settings: Wistar rats, start at age 6 months, mean
Experimental: The albumin and creatinine excretion in Wistar rats was determined. One group was left untreated, one was treated with the ACE/NEP inhibitor of formula (II-B) and one group was treated with the ACE inhibitor ramipril. Wistar rats are non-diabetic and develop proteinuria and structural kidney damage during adult life. Wistar rats are therefore a model for non-diabetic nephropathy. [table]

[11] = tested on: ZDF rats; assay: Urinary albumin/creatinine in ZDF rats, treatment starting at an animal age of 6 months; assay type: in vivo, rat; settings: start at age 6 months, mean
[12] = tested on: Goto-Kakizaki (GK) rats; assay: Albumin and creatinine excretion in Goto-Kakizaki (GK) rats; assay type: in vivo, rat; settings: start at age 6 months, mean
Experimental: The albumin and creatinine excretion in Goto-Kakizaki (GK) rats was determined. GK rats are a model for Type II diabetes. One group was left untreated, one was treated with the ACE/NEP inhibitor of formula (II-B) and one group was treated with the ACE inhibitor ramipril. [table]

[13] = 17-week-old ZDF rats treated for seven weeks, dot blot
[14] = age 10 weeks (start of treatment)
[15] = age 17 weeks (treated for seven weeks)
[16] = kidneys, male fat ZDF rats, terminal sacrifice
[17] = kidneys, male fat ZDF rats, terminal sacrifice, examined: D1 9, D4 8

SMILES: CC(=O)S[C@@H](Cc1ccccc1)C(=O)N[C@H]1Cc2ccccc2[C@H]2CCC[C@@H](C(=O)O)N2C1=O [cpd. (III-B)]
AGE-subtype CEL in the kidneys (anti-CEL), mean [1, 13]: 52.60 rf * 10^5 | AGE-subtype CML in the kidneys (anti-CML 011), mean [1, 13]: 38.67 rf * 10^5 | AGE-subtype pentosidine in the kidneys (anti-pentosidine 012), mean [1, 13]: 40.70 rf * 10^5 | Kidney AGE (Nε-(carboxymethyl)lysine or CML) values ([1]; diabetic rats, summary in words): lowers the CML value significantly | AGE values for subtype CEL compared to untreated ZDF rats ([1]; kidney, dot blot, in words): Lower AGE values | AGE values for subtype pentosidine compared to untreated ZDF rats ([1]; kidney, dot blot, in words): Lower AGE values | HbA1c values compared to the untreated ZDF rats ([2]; in words): significantly lower | HbA1c, mean [2, 14]: 5.60% | HbA1c, mean [2, 15]: 7.19% | HbA1c value compared with the ACE inhibitor ramipril ([2]; in words): lower values | Incidence of glomerulosclerosis or associated degenerative lesions compared to fat ZDF controls [3]: no differences | mean CML conc. ([4]; hearts of 17-week-old ZDF rats): 66% | mean CML conc. ([4]; kidneys of 17-week-old ZDF rats): 60% | mean CML conc. ([4]; kidneys of 37-week-old ZDF rats): 93% | CML concentration in the heart of 17-week-old ZDF rats ([4]; in words): also reduces | CML concentration in the kidneys of 17-week-old ZDF rats ([4]; in words): also reduces | Blood glucose concentration compared to the untreated ZDF rats ([5]; in words): significantly lower | blood glucose, mean [5, 14]: 10.37 mM | blood glucose, mean [5, 15]: 19.74 mM | Blood glucose value compared with the ACE inhibitor ramipril ([5]; in words): lower values

SMILES: O=C(N[C@H]1CCS[C@H]2CCC[C@@H](C(=O)O)N2C1=O)[C@@H](S)Cc1ccccc1 [omapatrilat]
Natriuretic response compared with ACE inhibitor fosinoprilat [6]: greater natriuretic response

Dilatation: pelvis GRADE 2: number of animals [3, 16]: 1 | Dilatation: pelvis GRADE 3: number of animals [3, 16]: 2 | Dilatation: pelvis GRADE 4: number of animals [3, 16]: 2 | Dilatation: pelvis MEAN SEVERITY [3, 16]: 3.2 | Dilatation: pelvis: number of animals with finding (total affected) [3, 17]: 5
SMILES: CCOC(=O)[C@H](CCc1ccccc1)N[C@@H](C)C(=O)N1[C@H](C(=O)O)C[C@@H]2CCC[C@@H]21 [ramipril, reference compound]
NO [7]: 368.31 ± 42.25 nM | O2^− (superoxide) [7]: 48.09 ± 7.91 nM | Relaxation of aortic rings by acetylcholine ([8]; ACh 10^−5 mol/L after phenylephrine 10^−7 mol/L): 83.73 ± 4.03% | Relaxation of aortic rings by acetylcholine ([8]; ACh 10^−6 mol/L after phenylephrine 10^−7 mol/L): 77.34 ± 3.7% | Relaxation of aortic rings by acetylcholine ([8]; ACh 10^−7 mol/L after phenylephrine 10^−7 mol/L): 51.86 ± 4.43% | Relaxation of aortic rings by acetylcholine ([8]; ACh 10^−8 mol/L after phenylephrine 10^−7 mol/L): 13.08 ± 2.22% | HbA1c values compared to the untreated ZDF rats ([2]; in words): No significant difference | HbA1c, mean [2, 14]: 5.66% | HbA1c, mean [2, 15]: 9.48% | Incidence of glomerulosclerosis or associated degenerative lesions compared to fat ZDF controls [3]: no differences | Armanni-Ebstein cells GRADE 1: number of animals [3, 16]: 1 | Armanni-Ebstein cells GRADE 2: number of animals [3, 16]: 6 | Armanni-Ebstein cells MEAN SEVERITY [3, 16]: 1.9 | Atrophy: renal tubule GRADE 1: number of animals [3, 16]: 4 | Atrophy: renal tubule GRADE 2: number of animals [3, 16]: 4 | Atrophy: renal tubule GRADE 3: number of animals [3, 16]: 1 | Atrophy: renal tubule MEAN SEVERITY [3, 16]: 1.7 | Casts: renal tubule GRADE 1: number of animals [3, 16]: 1 | Casts: renal tubule GRADE 2: number of animals [3, 16]: 7 | Casts: renal tubule MEAN SEVERITY [3, 16]: 1.9 | Glomerulosclerosis GRADE 2: number of animals [3, 16]: 4 | Glomerulosclerosis GRADE 3: number of animals [3, 16]: 2 | Glomerulosclerosis MEAN SEVERITY [3, 16]: 2.3 | Armanni-Ebstein cells: number of animals with finding (total affected) [3, 17]: 7 | Atrophy: renal tubule: number of animals with finding (total affected) [3, 17]: 9 | Casts: renal tubule: number of animals with finding (total affected) [3, 17]: 8 | Glomerulosclerosis: number of animals with finding (total affected) [3, 17]: 6 | Urine excretion Albumin ([9]; week 0 of treatment): 0.24 mg/kg/h | Urine excretion Albumin/Creatinine ([9]; week 0 of treatment): 37.31 mg/mmol | Urine excretion Albumin ([9]; week 7 of treatment): 1.36 mg/kg/h | Urine excretion Albumin/Creatinine ([9]; week 7 of treatment): 207.35 mg/mmol | Urine excretion Albumin ([9]; week 17 of treatment): 6.26 mg/kg/h | Urine excretion Albumin/Creatinine ([9]; week 17 of treatment): 694.20 mg/mmol | Urine excretion Albumin ([9]; week 27 of treatment): 10.11 mg/kg/h | Urine excretion Albumin/Creatinine ([9]; week 27 of treatment): 1077.88 mg/mmol | Albumin/Creatinine ([10]; 6 weeks treatment): 184.27 mg/mmol | Albumin/Creatinine ([10]; 12 weeks treatment): 188.40 mg/mmol | Albumin/Creatinine ([10]; Basal): 130.45 mg/mmol | Albumin/Creatinine ([11]; 6 weeks treatment): 1249.59 mg/mmol | Albumin/Creatinine ([11]; 12 weeks treatment): 841.69 mg/mmol | Albumin/Creatinine ([11]; Basal): 1330.99 mg/mmol | Albumin/Creatinine ([12]; 6 weeks treatment): 161.71 mg/mmol | Albumin/Creatinine ([12]; 12 weeks treatment): 244.89 mg/mmol | Albumin/Creatinine ([12]; Basal): 103.95 mg/mmol | Blood glucose concentration compared to the untreated ZDF rats ([5]; in words): No significant difference | blood glucose, mean [5, 14]: 11.74 mM | blood glucose, mean [5, 15]: 27.33 mM
